US11572398B2, “GLP-1 derivatives and uses thereof” (Novo Nordisk A/S, priority 2014, dated 2023)
Like-named read-outs stand apart in the source and are kept apart here. Non-standard residues stand in square brackets, D forms with d. Residues, ends and D or L forms follow the SMILES beside them. *: point of attachment. X1 = O=C(O)CCCCCCCCCCCCCCCCCCC(=O)NC[C@H]1CC[C@H](C(=O)N[C@@H](CCC(=O)NCCOCCOCC(=O)NCCOCCOCC(=O)NCCOCCOCC(=O)NCCOCCOCC(=O)NCCOCCOCC(=O)NCCOCCOCC(=O)NCCCN(CCCNC(=O)COCCOCCNC(=O)COCCOCCNC(=O)COCCOCCNC(=O)COCCOCCNC(=O)COCCOCCNC(=O)COCCOCCNC(=O)CC[C@H](NC(=O)[C@H]2CC[C@H](CNC(=O)CCCCCCCCCCCCCCCCCCC(=O)O)CC2)C(=O)O)CC(=O)*)C(=O)O)CC1; Aib = CC(C)(N)C(=O)O

Experiments:
[1] = Pharmacokinetic study in minipigs (i.v.); settings: male, Göttingen, minipig, in vivo, iv
Description: (§1) The purpose of this study is to determine the protraction in vivo of the GLP-1 derivatives after i.v. administration to minipigs, i.e. the prolongation of their time in the body and thereby their time of action. This is done in a pharmacokinetic (PK) study, where the terminal half-life of the derivative in question is determined. By terminal half-life is meant the time it takes to halve a certain plasma concentration in the terminal elimination phase.
(§2) Male Göttingen minipigs were obtained from Ellegaard Göttingen Minipigs (Dalmose, Denmark) approximately 7-14 months of age and weighing approximately 16-35 kg were used in the studies. The minipigs were housed either individually (pigs with permanent catheters) or in a group and fed restrictedly once or twice daily with SDS minipig diet (Special Diets Services, Essex, UK).
(§3) After at least 2 weeks of acclimatisation two permanent central venous catheters were implanted in vena cava caudalis or cranialis in each animal. The animals were allowed 1 week recovery after the surgery, and were then used for repeated pharmacokinetic studies with a suitable wash-out period between successive GLP-1 derivative dosings.
(§4) Blood samples (for example 0.8 ml) were collected in EDTA buffer (8 mM) and then centrifuged at 4° C. and 1942G for 10 minutes.
(§5) Plasma was pipetted into Micronic tubes on dry ice, and kept at −20° C. until analysed for plasma concentration of the respective GLP-1 compound using LOCI. Individual plasma concentration-time profiles were analyzed by a non-compartmental pharmacokinetic method in Phoenix v. 6.2 (Pharsight Inc., Mountain View, Calif., USA), or other relevant software for PK analysis, and the resulting terminal half-lives (harmonic mean) determined.

[2] = target: T1, human GLP-1 receptor (Homo sapiens, UniProt P43220); assay: GLP-1 receptor binding: competitive binding assay (125I-GLP-1, SPA) on isolated membranes at low and high HSA
T1 construct: expressed in transfected cells; host or cells: BHK cells (parent line BHKTS13), clone FCW467-12A; membrane preparation
T1 sequence (P43220 24-463): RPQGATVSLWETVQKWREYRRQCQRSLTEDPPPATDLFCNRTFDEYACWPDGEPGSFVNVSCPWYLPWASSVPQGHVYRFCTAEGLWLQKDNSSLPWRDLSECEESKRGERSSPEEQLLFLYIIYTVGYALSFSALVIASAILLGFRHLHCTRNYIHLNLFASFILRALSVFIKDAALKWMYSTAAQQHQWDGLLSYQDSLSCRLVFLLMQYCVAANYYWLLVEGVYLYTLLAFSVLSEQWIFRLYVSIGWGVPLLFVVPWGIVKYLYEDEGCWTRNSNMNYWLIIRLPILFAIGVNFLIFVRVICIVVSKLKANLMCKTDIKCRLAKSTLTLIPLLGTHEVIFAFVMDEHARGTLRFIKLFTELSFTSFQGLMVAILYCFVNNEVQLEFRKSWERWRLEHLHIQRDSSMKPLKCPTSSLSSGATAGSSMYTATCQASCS

[3] = target: T1, human GLP-1 receptor; assay: In vitro potency: CRE luciferase reporter gene assay in BHK cells expressing the human GLP-1 receptor; type: cell-based; settings: whole cell reporter gene assay, BHK cells, human GLP-1 receptor; average of at least two replicates; read-out: EC50
How it was run: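 Whole-cell assay in stably transfected BHK cells carrying CRE-driven firefly luciferase, 5×10^3 cells/well, in assay buffer with 2% ovalbumin and 0.2% Pluronic F-68. Compound working solutions were 0.2 μM.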

[4] = in vivo; settings: male, Göttingen, minipig, iv
Description: as §1, §2, §3, §4, §5

[5] = high HSA (2.0% final assay concentration), read-out: High HSA IC50
[6] = low HSA (max. 0.001% final assay concentration), read-out: Low HSA IC50

IC50 [2, 5]	half-life [4]	IC50 [2, 6]	Structure (SMILES)	half-life ([1]; 5 nmol/kg)	IC50 ([2]; Low HSA IC50, low HSA (max. 0.001% final assay concentration))	EC50 [3]	half-life ([1]; 2 nmol/kg)
9 nM	143 h	0.05 nM	CC[C@H](C)[C@H](NC(=O)[C@H](Cc1ccccc1)NC(=O)[C@H](CCC(=O)O)NC(=O)[C@H](CCCNC(=N)N)NC(=O)[C@H](C)NC(=O)[C@H](C)NC(=O)[C@H](CCC(N)=O)NC(=O)[C@H](CCC(=O)O)NC(=O)[C@H](CCC(=O)O)NC(=O)[C@H](CC(C)C)NC(=O)[C@H](Cc1ccc(O)cc1)NC(=O)[C@H](CO)NC(=O)[C@H](CO)NC(=O)[C@@H](NC(=O)[C@H](CC(=O)O)NC(=O)[C@H](CO)NC(=O)[C@@H](NC(=O)[C@H](Cc1ccccc1)NC(=O)[C@@H](NC(=O)CNC(=O)[C@H](CCC(=O)O)NC(=O)C(C)(C)NC(=O)[C@@H](N)Cc1c[nH]cn1)[C@@H](C)O)[C@@H](C)O)C(C)C)C(=O)N[C@@H](C)C(=O)N[C@@H](Cc1c[nH]c2ccccc12)C(=O)N[C@@H](CC(C)C)C(=O)N[C@H](C(=O)N[C@@H](CCCNC(=N)N)C(=O)NCC(=O)N[C@@H](CCCNC(=N)N)C(=O)N[C@@H](CCCCNC(=O)CN(CCCNC(=O)CCOCCOCCOCCOCCOCCOCCOCCOCCOCCOCCOCCOCCOCCOCCOCCOCCOCCOCCOCCOCCOCCOCCOCCOCCNC(=O)[C@@H](N)CCCCNC(=O)[C@@H](N)CCCCNC(=O)CCCCCCCCCCCCCCCCCCC(=O)O)CCCNC(=O)CCOCCOCCOCCOCCOCCOCCOCCOCCOCCOCCOCCOCCOCCOCCOCCOCCOCCOCCOCCOCCOCCOCCOCCOCCNC(=O)[C@@H](N)CCCCNC(=O)[C@@H](N)CCCCNC(=O)CCCCCCCCCCCCCCCCCCC(=O)O)C(=O)O)C(C)C [Example 6]			0.0072 nM	
			CC[C@H](C)[C@H](NC(=O)[C@H](Cc1ccccc1)NC(=O)[C@H](CCC(=O)O)NC(=O)[C@H](CCCNC(=N)N)NC(=O)[C@H](C)NC(=O)[C@H](C)NC(=O)[C@H](CCC(N)=O)NC(=O)[C@H](CCC(=O)O)NC(=O)[C@H](CCC(=O)O)NC(=O)[C@H](CC(C)C)NC(=O)[C@H](Cc1ccc(O)cc1)NC(=O)[C@H](CO)NC(=O)[C@H](CO)NC(=O)[C@@H](NC(=O)[C@H](CC(=O)O)NC(=O)[C@H](CO)NC(=O)[C@@H](NC(=O)[C@H](Cc1ccccc1)NC(=O)[C@@H](NC(=O)CNC(=O)[C@H](CCC(=O)O)NC(=O)C(C)(C)NC(=O)[C@@H](N)Cc1c[nH]cn1)[C@@H](C)O)[C@@H](C)O)C(C)C)C(=O)N[C@@H](C)C(=O)N[C@@H](Cc1c[nH]c2ccccc12)C(=O)N[C@@H](CC(C)C)C(=O)N[C@H](C(=O)N[C@@H](CCCNC(=N)N)C(=O)NCC(=O)N[C@@H](CCCNC(=N)N)C(=O)N1CCC[C@H]1C(=O)N[C@@H](CCCCNC(=O)CN(CCCNC(=O)COCCOCCNC(=O)COCCOCCNC(=O)COCCOCCNC(=O)COCCOCCNC(=O)COCCOCCNC(=O)COCCOCCNC(=O)CC[C@H](NC(=O)[C@H]1CC[C@H](CNC(=O)CCCCCCCCCCCCCCCCCCC(=O)O)CC1)C(=O)O)CCCNC(=O)COCCOCCNC(=O)COCCOCCNC(=O)COCCOCCNC(=O)COCCOCCNC(=O)COCCOCCNC(=O)COCCOCCNC(=O)CC[C@H](NC(=O)[C@H]1CC[C@H](CNC(=O)CCCCCCCCCCCCCCCCCCC(=O)O)CC1)C(=O)O)C(=O)O)C(C)C [Example 10] (H-H[Aib]EGTFTSDVSSYLEEQAAREFIAWLVRGRPK(X1)-OH; N-terminus and C-terminus assumed)				151 h
29 nM	131 h	0.36 nM	CC[C@H](C)[C@H](NC(=O)[C@H](Cc1ccccc1)NC(=O)[C@H](CCC(=O)O)NC(=O)[C@H](CCCNC(=N)N)NC(=O)[C@H](C)NC(=O)[C@H](C)NC(=O)[C@H](CCC(N)=O)NC(=O)[C@H](CCC(=O)O)NC(=O)[C@H](CCC(=O)O)NC(=O)[C@H](CC(C)C)NC(=O)[C@H](Cc1ccc(O)cc1)NC(=O)[C@H](CO)NC(=O)[C@H](CO)NC(=O)[C@@H](NC(=O)[C@H](CC(=O)O)NC(=O)[C@H](CO)NC(=O)[C@@H](NC(=O)[C@H](Cc1ccccc1)NC(=O)[C@@H](NC(=O)CNC(=O)[C@H](CCC(=O)O)NC(=O)C(C)(C)NC(=O)[C@@H](N)Cc1c[nH]cn1)[C@@H](C)O)[C@@H](C)O)C(C)C)C(=O)N[C@@H](C)C(=O)N[C@@H](Cc1c[nH]c2ccccc12)C(=O)N[C@@H](CC(C)C)C(=O)N[C@H](C(=O)N[C@@H](CCCNC(=N)N)C(=O)NCC(=O)N[C@@H](CCCNC(=N)N)C(=O)N[C@@H](CCCCNC(=O)COCCOCCNC(=O)COCCOCCNC(=O)COCCOCCNC(=O)COCCOCCNC(=O)COCCOCCNC(=O)COCCOCCNC(=O)CN(CCCNC(=O)CC[C@H](NC(=O)CCCCCCCCCCCCCCCCCCC(=O)O)C(=O)O)CCCNC(=O)CC[C@H](NC(=O)CCCCCCCCCCCCCCCCCCC(=O)O)C(=O)O)C(=O)O)C(C)C [Example 26, N{Epsilon-37}-[2-[2-[2-[[2-[2-[2-[[2-[2-[2-[[2-[2-[2-[[2-[2-[2-[[2-[2-[2-[[2-[bis[3-[[(4S)-4-carboxy-4-(19-carboxynonadecanoylamino)butanoyl]amino]propyl]amino]acetyl]amino]ethoxy]ethoxy]acetyl]amino]ethoxy]ethoxy]acetyl]amino]ethoxy]ethoxy]acetyl]amino]ethoxy]ethoxy]acetyl]amino]ethoxy]ethoxy]acetyl]amino]ethoxy]ethoxy]acetyl]-[Aib8,Glu22,Arg26,Arg34,Lys37]-GLP-1-(7-37)-peptide]				
			CC[C@H](C)[C@H](NC(=O)[C@H](Cc1ccccc1)NC(=O)[C@H](CCC(=O)O)NC(=O)[C@H](CCCNC(=N)N)NC(=O)[C@H](C)NC(=O)[C@H](C)NC(=O)[C@H](CCC(N)=O)NC(=O)[C@H](CCC(=O)O)NC(=O)[C@H](CCC(=O)O)NC(=O)[C@H](CC(C)C)NC(=O)[C@H](Cc1ccc(O)cc1)NC(=O)[C@H](CO)NC(=O)[C@H](CO)NC(=O)[C@@H](NC(=O)[C@H](CC(=O)O)NC(=O)[C@H](CO)NC(=O)[C@@H](NC(=O)[C@H](Cc1ccccc1)NC(=O)[C@@H](NC(=O)CNC(=O)[C@H](CCC(=O)O)NC(=O)C(C)(C)NC(=O)[C@@H](N)Cc1c[nH]cn1)[C@@H](C)O)[C@@H](C)O)C(C)C)C(=O)N[C@@H](C)C(=O)N[C@@H](Cc1c[nH]c2ccccc12)C(=O)N[C@@H](CC(C)C)C(=O)N[C@H](C(=O)N[C@@H](CCCNC(=N)N)C(=O)NCC(=O)N[C@@H](CCCNC(=N)N)C(=O)N[C@@H](CCCCNC(=O)COCCOCCNC(=O)COCCOCCNC(=O)COCCOCCNC(=O)COCCOCCNC(=O)CN(CCCNC(=O)CC[C@H](NC(=O)[C@H]1CC[C@H](CNC(=O)CCCCCCCCCCCCCCCCCCC(=O)O)CC1)C(=O)O)CCCNC(=O)CC[C@H](NC(=O)[C@H]1CC[C@H](CNC(=O)CCCCCCCCCCCCCCCCCCC(=O)O)CC1)C(=O)O)C(=O)O)C(C)C [Example 27, N{Epsilon-37}-[2-[2-[2-[[2-[2-[2-[[2-[2-[2-[[2-[2-[2-[[2-[bis[3-[[(4S)-4-carboxy-4-[[4-[(19-carboxynonadecanoylamino)methyl]cyclohexanecarbonyl]amino]butanoyl]amino]propyl]amino]acetyl]amino]ethoxy]ethoxy]acetyl]amino]ethoxy]ethoxy]acetyl]amino]ethoxy]ethoxy]acetyl]amino]ethoxy]ethoxy]acetyl]-[Aib8,Glu22,Arg26,Arg34,Lys37]-GLP-1-(7-37)-peptide]				138 h

Structure (SMILES)	IC50 [2, 5]	half-life [4]	IC50 [2, 6]	half-life ([1]; 5 nmol/kg)	IC50 ([2]; Low HSA IC50, low HSA (max. 0.001% final assay concentration))	EC50 [3]	half-life ([1]; 2 nmol/kg)
CC[C@H](C)[C@H](NC(=O)[C@H](Cc1ccccc1)NC(=O)[C@H](CCC(=O)O)NC(=O)[C@H](CCCNC(=N)N)NC(=O)[C@H](C)NC(=O)[C@H](C)NC(=O)[C@H](CCC(N)=O)NC(=O)[C@H](CCC(=O)O)NC(=O)[C@H](CCC(=O)O)NC(=O)[C@H](CC(C)C)NC(=O)[C@H](Cc1ccc(O)cc1)NC(=O)[C@H](CO)NC(=O)[C@H](CO)NC(=O)[C@@H](NC(=O)[C@H](CC(=O)O)NC(=O)[C@H](CO)NC(=O)[C@@H](NC(=O)[C@H](Cc1ccccc1)NC(=O)[C@@H](NC(=O)CNC(=O)[C@H](CCC(=O)O)NC(=O)C(C)(C)NC(=O)[C@@H](N)Cc1c[nH]cn1)[C@@H](C)O)[C@@H](C)O)C(C)C)C(=O)N[C@@H](C)C(=O)N[C@@H](Cc1c[nH]c2ccccc12)C(=O)N[C@@H](CC(C)C)C(=O)N[C@H](C(=O)N[C@@H](CCCNC(=N)N)C(=O)NCC(=O)N[C@@H](CCCNC(=N)N)C(=O)N[C@@H](CCCCNC(=O)CN(CCCNC(=O)COCCOCCNC(=O)COCCOCCNC(=O)COCCOCCNC(=O)COCCOCCNC(=O)COCCOCCNC(=O)COCCOCCNC(=O)CC[C@H](NC(=O)[C@H]1CC[C@H](CNC(=O)CCCCCCCCCCCCCCCCCCC(=O)O)CC1)C(=O)O)CCCNC(=O)COCCOCCNC(=O)COCCOCCNC(=O)COCCOCCNC(=O)COCCOCCNC(=O)COCCOCCNC(=O)COCCOCCNC(=O)CC[C@H](NC(=O)[C@H]1CC[C@H](CNC(=O)CCCCCCCCCCCCCCCCCCC(=O)O)CC1)C(=O)O)C(=O)O)C(C)C [Example 3]	22 nM			159 h	0.41 nM	0.02 nM	
